Laboratory results from patent publication US20250368653A1, “SOLID FORMS COMPRISING (S)-7-(1-ACRYLOYLPIPERIDIN-4-YL)-2-(4-PHENOXYPHENYL)-4,5,6,7-TETRAHYDROPYRAZOLO[1,5-A]PYRIMIDINE-3-CARBOXAMIDE, AND OXALIC ACID, COMPOSITIONS AND METHODS OF USE THEREOF” (BeiGene Switzerland GmbH, priority 2022, published 2025).
≈ marks a conversion by molar mass, not a printed value. Where two headings read alike, the source gives them in different places.

Columns and labels:
DVS water uptake = format: physicochemical; conditions: 25° C./80% RH
[1] = Solubility experiment in water; format: physicochemical; conditions: solid loading 2 mg/mL; for solubility at 1 h / solubility at 2 h / solubility at 4 h / solubility at 24 h: thermodynamic from solid, read-out: S: solubility
Description: Table 7 and Table 8 provide summaries of solubility experiment in water at 37° C. and 25° C., respectively.

| FC: solid form change ([1]; 25° C., 1 hr) | pH ([1]; 25° C., 1 hr) | FC: solid form change ([1]; 25° C., 2 hrs) | pH ([1]; 25° C., 2 hrs) | FC: solid form change ([1]; 25° C., 4 hrs) | pH ([1]; 25° C., 4 hrs) | FC: solid form change ([1]; 25° C., 24 hrs) | pH ([1]; 25° C., 24 hrs) | FC: solid form change ([1]; 37° C., 1 hr) | pH ([1]; 37° C., 1 hr) | FC: solid form change ([1]; 37° C., 2 hrs) | pH ([1]; 37° C., 2 hrs) | FC: solid form change ([1]; 37° C., 4 hrs) | pH ([1]; 37° C., 4 hrs) | FC: solid form change ([1]; 37° C., 24 hrs) | pH ([1]; 37° C., 24 hrs) | S: solubility ([1]; 25° C., 1 hr) | S: solubility ([1]; 25° C., 2 hrs) | S: solubility ([1]; 25° C., 4 hrs) | S: solubility ([1]; 25° C., 24 hrs) | Compound | other results |
| --- | --- | --- | --- | --- | --- | --- | --- | --- | --- | --- | --- | --- | --- | --- | --- | --- | --- | --- | --- | --- | --- |
| No | 3.36 | No | 3.09 | No | 3.01 | No | 2.76 | Gel | 3.22 | Gel | 2.97 | Gel | 3.01 | Gel | 2.74 | – | – | – | – | C=CC(=O)N1CCC([C@@H]2CCNc3c(C(N)=O)c(-c4ccc(Oc5ccccc5)cc4)nn32)CC1 [Form 1] | hygroscopicity (DVS water uptake): non hygroscopic; water uptake (DVS water uptake): lower than 0.2%; solubility at 1 h ([1]; 25 °C, 25° C., 1 hr): 75 µg/mL (≈ 159 µM); solubility at 2 h ([1]; 25 °C, 25° C., 2 hrs): 78 µg/mL (≈ 165 µM); solubility at 4 h ([1]; 25 °C, 25° C., 4 hrs): 77 µg/mL (≈ 163 µM); solubility at 24 h ([1]; 25 °C, 25° C., 24 hrs): 75 µg/mL (≈ 159 µM); solubility at 1 h ([1]; 37 °C, 37° C., 1 hr): 90 µg/mL (≈ 191 µM); solubility at 2 h ([1]; 37 °C, 37° C., 2 hrs): 88 µg/mL (≈ 187 µM); solubility at 4 h ([1]; 37 °C, 37° C., 4 hrs): 73 µg/mL (≈ 155 µM); solubility at 24 h ([1]; 37 °C, 37° C., 24 hrs): 82 µg/mL (≈ 174 µM) |
| No | 8.55 | No | 8.57 | No | 8.51 | No | 7.68 | Gel | 8.78 | Gel | 8.77 | Gel | 8.60 | Gel | 7.74 | 74 µg/mL | 81 µg/mL | 78 µg/mL | 72 µg/mL | C=CC(=O)N1CCC([C@@H]2CCNc3c(C(N)=O)c(-c4ccc(Oc5ccccc5)cc4)nn32)CC1 [Freebase Amorphous] | S: solubility ([1]; 37° C., 1 hr): 89 µg/mL; S: solubility ([1]; 37° C., 2 hrs): 89 µg/mL; S: solubility ([1]; 37° C., 4 hrs): 84 µg/mL; S: solubility ([1]; 37° C., 24 hrs): 78 µg/mL |
| No | 8.66 | No | 8.66 | No | 8.57 | No | 7.85 | No | 8.76 | No | 8.77 | No | 8.63 | No | 7.67 | 44 µg/mL | 46 µg/mL | 40 µg/mL | 47 µg/mL | C=CC(=O)N1CCC([C@@H]2CCNc3c(C(N)=O)c(-c4ccc(Oc5ccccc5)cc4)nn32)CC1 [Freebase Form A] | S: solubility ([1]; 37° C., 1 hr): 55 µg/mL; S: solubility ([1]; 37° C., 2 hrs): 57 µg/mL; S: solubility ([1]; 37° C., 4 hrs): 59 µg/mL; S: solubility ([1]; 37° C., 24 hrs): 56 µg/mL |
